According to ChEMBL document CHEMBL2417377, “Hit-to-lead optimization and kinase selectivity of imidazo[1,2-a]quinoxalin-4-amine derived JNK1 inhibitors” (Bioorg Med Chem Lett, 2013):

How the values were obtained:
[1] = molecular target: Dual specificity protein kinase CLK2 (Homo sapiens) (UniProt P49760); test: Inhibition of CLK2 in human PC3 cell lysates at 10 uM using desthiobiotin-tagged ATP probe AX9989 followed by trypsinization by LC/MS analysis; settings: PC-3
[2] = molecular target: Serine/threonine-protein kinase WNK2 (Homo sapiens) (UniProt Q9Y3S1); test: Inhibition of Wnk2 in human PC3 cell lysates at 10 uM using desthiobiotin-tagged ATP probe AX9989 followed by trypsinization by LC/MS analysis; settings: PC-3
[3] = molecular target: Protein kinase C alpha type (Homo sapiens) (UniProt P17252); test: Inhibition of PKCalpha in human PC3 cell lysates at 10 uM using desthiobiotin-tagged ATP probe AX9989 followed by trypsinization by LC/MS analysis; settings: PC-3
[4] = tested on: PC-3; test: Inhibition of KHS2 in human PC3 cell lysates at 10 uM using desthiobiotin-tagged ATP probe AX9989 followed by trypsinization by LC/MS analysis; type: cell-free
[5] = molecular target: Cyclin-dependent kinase 11B (Homo sapiens) (UniProt P21127); test: Inhibition of CDK11 in human PC3 cell lysates at 10 uM using desthiobiotin-tagged ATP probe AX9989 followed by trypsinization by LC/MS analysis; settings: PC-3
[6] = molecular target: Casein kinase II subunit alpha' (Homo sapiens) (UniProt P19784); test: Inhibition of CK2alpha2 in human PC3 cell lysates at 10 uM using desthiobiotin-tagged ATP probe AX9989 followed by trypsinization by LC/MS analysis; settings: PC-3
[7] = molecular target: AMPK alpha1/alpha2 (Homo sapiens) (UniProt P54646+Q13131); test: Inhibition of AMPKalpha1/AMPKalpha2 in human PC3 cell lysates at 10 uM using desthiobiotin-tagged ATP probe AX9989 followed by trypsinization by LC/MS analysis; type: protein-complex assay; settings: PC-3
[8] = molecular target: T1, Phosphorylase b kinase gamma catalytic chain, liver/testis isoform (Homo sapiens) (UniProt P15735); test: Inhibition of PHKgamma2 in human PC3 cell lysates at 10 uM using desthiobiotin-tagged ATP probe AX9989 followed by trypsinization by LC/MS analysis; settings: PC-3
T1 sequence (whole entry): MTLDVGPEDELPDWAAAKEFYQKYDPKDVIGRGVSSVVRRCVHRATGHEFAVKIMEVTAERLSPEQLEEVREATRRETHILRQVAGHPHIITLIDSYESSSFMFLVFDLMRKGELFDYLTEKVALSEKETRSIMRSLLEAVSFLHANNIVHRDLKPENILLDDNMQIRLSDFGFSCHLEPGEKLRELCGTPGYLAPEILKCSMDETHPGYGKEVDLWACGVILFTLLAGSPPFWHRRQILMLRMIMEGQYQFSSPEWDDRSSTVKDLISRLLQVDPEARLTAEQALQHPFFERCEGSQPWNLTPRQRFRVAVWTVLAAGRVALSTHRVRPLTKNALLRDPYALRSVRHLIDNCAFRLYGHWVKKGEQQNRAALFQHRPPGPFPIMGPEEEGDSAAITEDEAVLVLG

[9] = molecular target: Casein kinase I delta/epsilon (Homo sapiens) (UniProt P48730+P49674); test: Inhibition of CK1delta/CK1epsilon in human PC3 cell lysates at 10 uM using desthiobiotin-tagged ATP probe AX9989 followed by trypsinization by LC/MS analysis; type: protein-complex assay; settings: PC-3
[10] = molecular target: Serine/threonine-protein kinase ATR (Homo sapiens) (UniProt Q13535); test: Inhibition of ATR in human PC3 cell lysates at 10 uM using desthiobiotin-tagged ATP probe AX9989 followed by trypsinization by LC/MS analysis; settings: PC-3
[11] = molecular target: T2, Serine/threonine-protein kinase STK11 (Homo sapiens) (UniProt Q15831); test: Inhibition of LKB1 in human PC3 cell lysates at 10 uM using desthiobiotin-tagged ATP probe AX9989 followed by trypsinization by LC/MS analysis; settings: PC-3
T2 sequence (whole entry): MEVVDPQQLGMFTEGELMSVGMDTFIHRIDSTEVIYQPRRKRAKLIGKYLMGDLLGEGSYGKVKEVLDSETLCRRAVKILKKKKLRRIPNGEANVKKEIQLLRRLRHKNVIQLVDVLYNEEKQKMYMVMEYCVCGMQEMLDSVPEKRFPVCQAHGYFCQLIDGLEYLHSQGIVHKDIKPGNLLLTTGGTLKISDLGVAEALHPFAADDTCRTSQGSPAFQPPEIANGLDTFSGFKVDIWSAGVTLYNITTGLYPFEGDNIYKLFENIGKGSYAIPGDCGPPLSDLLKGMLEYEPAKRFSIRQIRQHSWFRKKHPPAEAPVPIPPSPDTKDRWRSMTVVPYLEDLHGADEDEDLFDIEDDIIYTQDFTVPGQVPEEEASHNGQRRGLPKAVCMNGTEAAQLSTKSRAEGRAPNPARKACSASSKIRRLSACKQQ

[12] = molecular target: T3, Mitogen-activated protein kinase kinase kinase 3 (Homo sapiens) (UniProt Q99759); test: Inhibition of MAP3K3 in human PC3 cell lysates at 10 uM using desthiobiotin-tagged ATP probe AX9989 followed by trypsinization by LC/MS analysis; settings: PC-3
T3 sequence (whole entry): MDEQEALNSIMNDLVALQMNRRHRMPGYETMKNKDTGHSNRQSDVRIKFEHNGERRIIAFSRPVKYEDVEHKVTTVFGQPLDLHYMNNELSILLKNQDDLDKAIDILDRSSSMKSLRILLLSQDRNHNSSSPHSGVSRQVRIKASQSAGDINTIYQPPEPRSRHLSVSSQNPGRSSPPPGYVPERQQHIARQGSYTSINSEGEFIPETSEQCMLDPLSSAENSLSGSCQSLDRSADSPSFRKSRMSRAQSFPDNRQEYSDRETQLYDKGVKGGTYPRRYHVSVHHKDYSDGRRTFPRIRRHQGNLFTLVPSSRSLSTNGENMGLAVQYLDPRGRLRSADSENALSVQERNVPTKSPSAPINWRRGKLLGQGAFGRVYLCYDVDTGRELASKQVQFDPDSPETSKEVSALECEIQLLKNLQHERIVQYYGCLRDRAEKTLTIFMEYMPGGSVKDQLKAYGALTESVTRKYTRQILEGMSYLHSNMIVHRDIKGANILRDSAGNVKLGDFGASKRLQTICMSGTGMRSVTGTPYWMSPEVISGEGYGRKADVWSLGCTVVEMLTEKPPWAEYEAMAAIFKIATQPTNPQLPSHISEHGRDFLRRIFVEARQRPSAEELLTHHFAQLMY

[13] = molecular target: Proto-oncogene tyrosine-protein kinase Src (Homo sapiens) (UniProt P12931); test: Inhibition of SRC in human PC3 cell lysates at 10 uM using desthiobiotin-tagged ATP probe AX9989 followed by trypsinization by LC/MS analysis; settings: PC-3
[14] = molecular target: Cyclin-dependent kinase 9 (Homo sapiens) (UniProt P50750); test: Inhibition of CDK9 in human PC3 cell lysates at 10 uM using desthiobiotin-tagged ATP probe AX9989 followed by trypsinization by LC/MS analysis; settings: PC-3
Sequence of Cyclin-dependent kinase 9 (Homo sapiens) (P50750 whole entry): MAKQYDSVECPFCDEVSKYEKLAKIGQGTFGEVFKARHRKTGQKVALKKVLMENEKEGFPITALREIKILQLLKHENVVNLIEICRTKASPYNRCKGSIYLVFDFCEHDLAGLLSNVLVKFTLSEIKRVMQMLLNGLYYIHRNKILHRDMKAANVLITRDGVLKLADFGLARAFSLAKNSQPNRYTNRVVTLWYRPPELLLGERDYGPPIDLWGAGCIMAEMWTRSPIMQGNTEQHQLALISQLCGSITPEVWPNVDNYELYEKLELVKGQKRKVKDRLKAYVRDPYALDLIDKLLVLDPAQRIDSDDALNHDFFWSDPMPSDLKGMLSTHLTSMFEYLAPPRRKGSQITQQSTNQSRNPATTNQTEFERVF

Sequence of Cyclin-dependent kinase 11B (Homo sapiens) (P21127 whole entry): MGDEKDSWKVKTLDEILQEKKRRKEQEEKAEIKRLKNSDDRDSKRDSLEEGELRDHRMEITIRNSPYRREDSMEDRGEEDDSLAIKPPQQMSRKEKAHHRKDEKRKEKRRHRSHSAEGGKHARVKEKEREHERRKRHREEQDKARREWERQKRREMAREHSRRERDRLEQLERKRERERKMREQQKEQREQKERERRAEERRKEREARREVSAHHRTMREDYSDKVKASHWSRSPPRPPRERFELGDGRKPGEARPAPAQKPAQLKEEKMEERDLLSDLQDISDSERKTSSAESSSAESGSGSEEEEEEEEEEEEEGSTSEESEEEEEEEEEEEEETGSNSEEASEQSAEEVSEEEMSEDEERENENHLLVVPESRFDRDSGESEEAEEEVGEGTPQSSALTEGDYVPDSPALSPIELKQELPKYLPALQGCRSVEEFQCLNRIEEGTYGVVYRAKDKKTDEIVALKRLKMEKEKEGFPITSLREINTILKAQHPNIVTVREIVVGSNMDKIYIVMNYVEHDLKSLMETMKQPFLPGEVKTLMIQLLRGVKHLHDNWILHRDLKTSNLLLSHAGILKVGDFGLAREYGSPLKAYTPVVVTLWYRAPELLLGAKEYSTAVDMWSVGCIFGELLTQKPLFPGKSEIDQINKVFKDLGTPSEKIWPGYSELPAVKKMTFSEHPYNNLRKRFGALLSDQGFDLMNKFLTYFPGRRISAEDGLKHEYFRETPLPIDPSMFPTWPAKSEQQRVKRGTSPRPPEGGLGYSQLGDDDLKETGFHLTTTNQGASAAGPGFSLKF
Sequence of Casein kinase I delta/epsilon (Homo sapiens) (P48730 whole entry, looked up): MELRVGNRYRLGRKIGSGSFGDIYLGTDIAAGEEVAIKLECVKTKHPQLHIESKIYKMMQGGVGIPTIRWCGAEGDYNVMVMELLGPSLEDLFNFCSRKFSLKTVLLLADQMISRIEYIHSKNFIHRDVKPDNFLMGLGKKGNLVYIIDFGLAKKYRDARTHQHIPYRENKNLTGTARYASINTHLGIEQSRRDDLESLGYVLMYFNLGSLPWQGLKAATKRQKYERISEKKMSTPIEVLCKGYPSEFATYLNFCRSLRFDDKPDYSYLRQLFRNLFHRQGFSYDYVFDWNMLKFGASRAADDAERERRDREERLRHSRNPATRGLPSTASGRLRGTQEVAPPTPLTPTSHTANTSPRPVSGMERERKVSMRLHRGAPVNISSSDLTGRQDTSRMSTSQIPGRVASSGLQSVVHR
Sequence of Casein kinase I delta/epsilon (Homo sapiens) (P49674 whole entry, looked up): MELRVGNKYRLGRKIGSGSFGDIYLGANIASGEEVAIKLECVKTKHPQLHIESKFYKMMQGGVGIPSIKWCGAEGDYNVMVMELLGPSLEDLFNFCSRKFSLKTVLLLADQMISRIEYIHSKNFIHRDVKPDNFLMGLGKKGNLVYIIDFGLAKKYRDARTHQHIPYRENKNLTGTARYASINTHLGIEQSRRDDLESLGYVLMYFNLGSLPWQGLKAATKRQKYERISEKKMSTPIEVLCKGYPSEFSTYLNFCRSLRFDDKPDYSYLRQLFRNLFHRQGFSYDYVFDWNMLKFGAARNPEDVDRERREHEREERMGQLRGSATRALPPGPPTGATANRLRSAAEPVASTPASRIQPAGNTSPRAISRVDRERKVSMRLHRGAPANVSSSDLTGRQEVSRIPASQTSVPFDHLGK
Sequence of Serine/threonine-protein kinase WNK2 (Homo sapiens) (Q9Y3S1 whole entry): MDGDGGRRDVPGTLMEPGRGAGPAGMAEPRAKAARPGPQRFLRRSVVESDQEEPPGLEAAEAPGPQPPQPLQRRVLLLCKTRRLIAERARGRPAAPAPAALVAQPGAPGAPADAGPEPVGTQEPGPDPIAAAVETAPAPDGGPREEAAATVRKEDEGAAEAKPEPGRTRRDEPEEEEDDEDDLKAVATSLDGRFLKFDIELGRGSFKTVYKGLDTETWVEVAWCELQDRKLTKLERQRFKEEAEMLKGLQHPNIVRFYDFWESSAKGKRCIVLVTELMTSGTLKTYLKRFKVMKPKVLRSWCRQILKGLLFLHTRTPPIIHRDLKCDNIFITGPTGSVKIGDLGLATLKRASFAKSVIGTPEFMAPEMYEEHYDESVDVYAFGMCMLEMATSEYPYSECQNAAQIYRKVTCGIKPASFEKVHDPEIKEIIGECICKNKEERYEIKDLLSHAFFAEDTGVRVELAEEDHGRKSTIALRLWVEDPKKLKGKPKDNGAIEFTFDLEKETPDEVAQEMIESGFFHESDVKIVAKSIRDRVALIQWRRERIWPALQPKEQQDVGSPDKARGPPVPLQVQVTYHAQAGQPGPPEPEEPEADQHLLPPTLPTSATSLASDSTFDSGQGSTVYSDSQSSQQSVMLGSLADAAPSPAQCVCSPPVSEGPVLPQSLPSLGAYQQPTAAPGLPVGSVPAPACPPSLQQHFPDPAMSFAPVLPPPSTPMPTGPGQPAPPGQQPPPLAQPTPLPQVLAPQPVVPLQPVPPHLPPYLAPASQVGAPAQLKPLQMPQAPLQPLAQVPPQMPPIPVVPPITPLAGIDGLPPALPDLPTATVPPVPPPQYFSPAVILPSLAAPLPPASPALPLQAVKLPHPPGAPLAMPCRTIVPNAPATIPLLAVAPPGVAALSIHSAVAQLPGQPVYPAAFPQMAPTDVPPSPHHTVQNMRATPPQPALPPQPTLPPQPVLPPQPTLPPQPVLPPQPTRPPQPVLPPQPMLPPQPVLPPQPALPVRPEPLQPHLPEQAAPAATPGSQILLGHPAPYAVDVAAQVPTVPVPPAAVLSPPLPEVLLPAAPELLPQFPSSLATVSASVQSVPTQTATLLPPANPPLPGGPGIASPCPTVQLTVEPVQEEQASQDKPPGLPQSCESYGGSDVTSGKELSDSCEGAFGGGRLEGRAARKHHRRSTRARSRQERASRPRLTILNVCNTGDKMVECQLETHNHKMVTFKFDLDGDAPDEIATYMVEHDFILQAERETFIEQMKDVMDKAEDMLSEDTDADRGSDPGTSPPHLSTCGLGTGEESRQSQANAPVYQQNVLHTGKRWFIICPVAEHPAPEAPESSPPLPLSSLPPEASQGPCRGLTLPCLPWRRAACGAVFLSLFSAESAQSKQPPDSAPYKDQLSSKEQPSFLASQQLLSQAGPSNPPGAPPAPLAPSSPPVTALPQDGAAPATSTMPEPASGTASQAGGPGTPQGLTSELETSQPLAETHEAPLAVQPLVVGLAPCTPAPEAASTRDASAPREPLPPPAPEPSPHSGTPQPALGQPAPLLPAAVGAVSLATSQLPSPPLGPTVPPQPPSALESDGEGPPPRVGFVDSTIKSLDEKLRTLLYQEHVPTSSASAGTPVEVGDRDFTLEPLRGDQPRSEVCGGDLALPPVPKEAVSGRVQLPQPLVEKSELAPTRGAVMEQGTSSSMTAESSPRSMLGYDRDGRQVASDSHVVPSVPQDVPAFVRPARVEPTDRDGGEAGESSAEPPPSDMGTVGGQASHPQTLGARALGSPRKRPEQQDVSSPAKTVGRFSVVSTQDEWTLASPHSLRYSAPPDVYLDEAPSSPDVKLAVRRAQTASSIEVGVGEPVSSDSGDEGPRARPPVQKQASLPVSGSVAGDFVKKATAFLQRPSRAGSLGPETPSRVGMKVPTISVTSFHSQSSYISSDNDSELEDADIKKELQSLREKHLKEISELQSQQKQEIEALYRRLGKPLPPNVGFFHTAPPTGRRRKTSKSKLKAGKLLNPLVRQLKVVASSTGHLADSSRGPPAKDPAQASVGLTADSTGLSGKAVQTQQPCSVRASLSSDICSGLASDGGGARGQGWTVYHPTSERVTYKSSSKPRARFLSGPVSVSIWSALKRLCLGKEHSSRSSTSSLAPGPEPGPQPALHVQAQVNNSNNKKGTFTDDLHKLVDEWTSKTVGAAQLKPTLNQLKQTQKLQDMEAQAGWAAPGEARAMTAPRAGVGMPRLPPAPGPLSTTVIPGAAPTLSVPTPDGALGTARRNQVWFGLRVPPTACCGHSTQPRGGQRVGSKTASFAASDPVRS
Sequence of Dual specificity protein kinase CLK2 (Homo sapiens) (P49760 whole entry, looked up): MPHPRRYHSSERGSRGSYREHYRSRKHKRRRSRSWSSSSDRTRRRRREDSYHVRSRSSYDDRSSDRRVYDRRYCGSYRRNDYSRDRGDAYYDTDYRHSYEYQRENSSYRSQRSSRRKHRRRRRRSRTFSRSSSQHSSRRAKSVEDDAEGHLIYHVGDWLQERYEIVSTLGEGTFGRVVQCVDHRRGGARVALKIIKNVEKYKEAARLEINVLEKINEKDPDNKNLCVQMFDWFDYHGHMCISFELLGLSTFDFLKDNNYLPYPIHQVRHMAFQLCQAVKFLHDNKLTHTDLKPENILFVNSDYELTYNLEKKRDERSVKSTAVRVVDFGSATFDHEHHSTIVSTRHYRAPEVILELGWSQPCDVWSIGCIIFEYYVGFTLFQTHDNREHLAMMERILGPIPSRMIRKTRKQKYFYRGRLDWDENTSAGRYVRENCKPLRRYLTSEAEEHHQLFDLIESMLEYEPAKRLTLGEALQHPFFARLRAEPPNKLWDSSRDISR

SMILES | inhibition [1] [%] | inhibition [2] [%] | inhibition [3] [%] | inhibition [5] [%] | inhibition [6] [%] | inhibition [7] [%] | inhibition [8] [%] | inhibition [9] [%] | inhibition [10] [%] | inhibition [11] [%] | inhibition [12] [%] | inhibition [13] [%] | inhibition [14] [%] | inhibition [4] [%]
NC(=O)c1ccc2nc(N[C@H]3CC[C@H](O)CC3)c3nccn3c2c1 | < 35 | < 35 | < 35 | < 35 | < 35 | < 35 | < 35 | 91.3 | < 35 | < 35 | < 35 | < 35 | 98.6 | < 35
O=C(O)c1ccc2nc(N[C@H]3CC[C@H](O)CC3)c3nccn3c2c1 | < 35 | < 35 | < 35 | < 35 | 40.6 | < 35 | < 35 | 81.2 | < 35 | < 35 | < 35 | < 35 | 97.9 | < 35
O=C(NC1(c2ccccc2)CCC1)c1ccc2nc(N[C@H]3CC[C@H](O)CC3)c3nccn3c2c1 | < 35 | < 35 | < 35 | < 35 | < 35 | < 35 | < 35 | < 35 | < 35 | < 35 | < 35 | < 35 | 49.8 | < 35
O=C(NC1(c2ccc(F)cc2)CC1)c1ccc2nc(N[C@H]3CC[C@H](O)CC3)c3nccn3c2c1 | < 35 | < 35 | < 35 | < 35 | < 35 | < 35 | < 35 | 44.3 | < 35 | < 35 | < 35 | < 35 | < 35 | < 35
O=C(NC1(Cc2ccc(F)cc2)CC1)c1ccc2nc(N[C@H]3CC[C@H](O)CC3)c3nccn3c2c1 | < 35 | < 35 | < 35 | < 35 | < 35 | < 35 | < 35 | < 35 | < 35 | < 35 | < 35 | < 35 | < 35 | < 35

The next lines start with results.

inhibition [1] [%] | inhibition [2] [%] | inhibition [3] [%] | inhibition [5] [%] | inhibition [6] [%] | inhibition [7] [%] | inhibition [8] [%] | inhibition [9] [%] | inhibition [10] [%] | inhibition [11] [%] | inhibition [12] [%] | inhibition [13] [%] | inhibition [14] [%] | SMILES | inhibition [4] [%]
< 35 | < 35 | < 35 | < 35 | < 35 | < 35 | < 35 | < 35 | < 35 | < 35 | < 35 | < 35 | < 35 | CCC[C@@H](NC(=O)c1ccc2nc(N[C@H]3CC[C@H](O)CC3)c3nccn3c2c1)c1ccccc1 | < 35
< 35 | < 35 | < 35 | < 35 | < 35 | < 35 | < 35 | < 35 | < 35 | < 35 | < 35 | < 35 | < 35 | O=C(NC1(c2ccccc2)CC1)c1ccc2nc(N[C@H]3CC[C@H](O)CC3)c3nccn3c2c1 | < 35
< 35 | < 35 | < 35 | < 35 | < 35 | < 35 | < 35 | < 35 | < 35 | < 35 | < 35 | < 35 | < 35 | C[C@H](NC(=O)c1ccc2nc(N[C@H]3CC[C@H](O)CC3)c3nccn3c2c1)c1ccccc1 | < 35
< 35 | < 35 | < 35 | < 35 | < 35 | < 35 | < 35 | < 35 | < 35 | < 35 | < 35 | < 35 | < 35 | CC[C@@H](NC(=O)c1ccc2nc(N[C@H]3CC[C@H](O)CC3)c3nccn3c2c1)c1ccccc1 | < 35
< 35 | < 35 | < 35 | < 35 | < 35 | < 35 | < 35 | < 35 | < 35 | < 35 | < 35 | < 35 | < 35 | CC(C)(NC(=O)c1ccc2nc(N[C@H]3CC[C@H](O)CC3)c3nccn3c2c1)c1ccccc1 | < 35
< 35 | < 35 | < 35 | < 35 | < 35 | 43.2 | < 35 | 42.6 | < 35 | < 35 | < 35 | < 35 | 42 | C[C@@H](NC(=O)c1ccc2nc(N[C@H]3CC[C@H](O)CC3)c3nccn3c2c1)c1ccccc1 | < 35
< 35 | < 35 | < 35 | < 35 | < 35 | 40.1 | < 35 | < 35 | < 35 | < 35 | < 35 | < 35 | < 35 | O=C(N[C@H](CO)c1ccccc1)c1ccc2nc(N[C@H]3CC[C@H](O)CC3)c3nccn3c2c1 | < 35
